Laboratory results published in patent US8809627B2, “Plant isoflavone and isoflavanone O-methyltransferase genes” (The Samuel Roberts Noble Foundation, Inc., priority 2006, dated 2014).
“Also recorded” adds a separate entry of the source.

Tests used:
Assay type in all cases: cell-based, Medicago truncatula
[1] = test system: MtIOMT6; experiment: Microarray analysis of elicitor-treated cell suspension cultures: MtIOMT6 transcripts; details: 2 and 24 hours post-elicitation
From the text: (§1) The Affymetrix DNA chip contained 61,200 probe sets: 32,167 M. truncatula EST/mRNA-based and chloroplast gene-based probe sets (TIGR Gene Index version 8, January, 2005, 36,878 unique sequences); 18,733 M. truncatula IMGAG (International Medicago Genome Annotation Group) and phase 2/3 BAC prediction-based probe sets; 1,896 M. sativa EST/mRNA based probe sets; 8,305 Sinorhizobium meliloti gene prediction-based probe sets. For microarray experiments, total RNA was extracted from cell suspension cultures (Suzuki et al., 2005) using TRI Reagent (Molecular Research Center, Inc., Cincinnati, Ohio) and purified using the RNeasy® MinElute Cleanup Kit (Qiagen, Valencia, Calif.), according to the manufacturer's instructions. For all samples, 10 μg of total RNA was used for labeling reactions. Labeling, hybridization and data processing were performed according to the manufacturer's instruction (Affymetrix, Santa Clara, Calif.). For both YE and MeJA treatments, transcript profiles were examined at early (2 h) and late (24 h) time post-elicitation. For each sample point, two biological replicates were included, and the average signal intensities were used to calculate ratio of treatment to its corresponding control. […]

[2] = test system: MtIOMT4; experiment: Microarray analysis of elicitor-treated cell suspension cultures: MtIOMT4 transcripts; details: 2 and 24 hours post-elicitation
From the text: as §1

[3] = test system: MtIOMT6; experiment: RT-PCR analysis of elicitor-treated cell cultures: MtIOMT6
Description: (§2) Infection of M. truncatula with Phoma medicaginis was performed as described (Deavours and Dixon, 2005). RNA was extracted from plant tissues using TRI Reagent (Molecular Research Center, Inc., Cincinnati, Ohio) according to the manufacturer's instructions. For RT-PCR, 2 μg of total RNA was transcribed into cDNA using Ready-To-Go RT-PCR beads (Amersham, Piscataway, N.J.) and oligo-dT primer. Two μl of cDNA was used in each PCR reaction (50 μl total) with Ex-Taq PCR reagents (Takara Bio Inc., Shiga, Japan) and the primers used are listed in Table 1 (SEQ ID NOs:16-29). PCR conditions were 94° C., 5 min; 25-32 cycles of 94° C. for 1 min, 55° C. for 1 min, 72° C. for 1 min; followed by 72° C. for 10 min. PCR products were resolved on a 1% (w/v) TAE-agarose gel and visualized with ethidium bromide.
(§3) Differential induction of MtIOMTs in response to elicitation was also observed in M. truncatula cell cultures treated with yeast elicitor (YE) or methyl jasmonate (MeJA), which induce different global patterns of genetic re-programming (Suzuki et al., 2005). Changes in IOMT transcripts in elicited cells were inferred from microarray data generated utilizing Affymetrix Medicago genome arrays with 61K probe sets (www.affymetrix.com). […]

[4] = test system: MtIOMT7; experiment: Microarray analysis of elicitor-treated cell suspension cultures: MtIOMT7 transcripts; details: 2 and 24 hours post-elicitation
From the text: as §1

[5] = test system: MtIOMT1; experiment: Expression in elicitor-treated cell cultures: MtIOMT1 transcripts
From the text: as §1

[6] = test system: IFS genes; experiment: Microarray analysis of elicitor-treated cell suspension cultures: IFS transcripts; details: MeJA: 24 h after treatment
From the text: The Affymetrix DNA chip contained 61,200 probe sets: 32,167 M. truncatula EST/mRNA-based and chloroplast gene-based probe sets (TIGR Gene Index version 8, January, 2005, 36,878 unique sequences); 18,733 M. truncatula IMGAG (International Medicago Genome Annotation Group) and phase 2/3 BAC prediction-based probe sets; 1,896 M. sativa EST/mRNA based probe sets; 8,305 Sinorhizobium meliloti gene prediction-based probe sets. For microarray experiments, total RNA was extracted from cell suspension cultures (Suzuki et al., 2005) using TRI Reagent (Molecular Research Center, Inc., Cincinnati, Ohio) and purified using the RNeasy® MinElute Cleanup Kit (Qiagen, Valencia, Calif.), according to the manufacturer's instructions. For all samples, 10 μg of total RNA was used for labeling reactions. Labeling, hybridization and data processing were performed according to the manufacturer's instruction (Affymetrix, Santa Clara, Calif.). For both YE and MeJA treatments, transcript profiles were examined at early (2 h) and late (24 h) time post-elicitation. For each sample point, two biological replicates were included, and the average signal intensities were used to calculate ratio of treatment to its corresponding control.
MtIOMTs 6-8 are annotated as encoding 2,7,4′-trihydroxyisoflavanone 4′-OMTs. […]

[7] = test system: MtIOMT2; experiment: RT-PCR analysis of elicitor-treated cell cultures: MtIOMT2
Description: as §2, §3

CC/C=C\CC1C(=O)CCC1CC(=O)OC (stereo not shown) [MeJA, methyl jasmonate]
Induction of MtIOMT6 transcripts, treatment vs control [1]: massively induced; also recorded: very strongly induced
Induction of MtIOMT4 transcripts, treatment vs control [2]: down-regulated
Induction of MtIOMT6 transcripts [3]: strong induction
Induction of MtIOMT7 transcripts, treatment vs control [4]: massively induced; also recorded: very strongly induced
Induction of MtIOMT1 transcripts [5]: induced
Change of IFS gene transcripts, treatment vs control [6]: down-regulated; also recorded: consistently reduced
Induction of MtIOMT2 transcripts [7]: strong induction
